According to ChEMBL document CHEMBL1201862, “PubChem BioAssay data set” (2004):
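Each compound was tested at five concentrations against cells in 96-well plates for 48 hours. GI50: concentration for 50% inhibition of growth.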 Active and inactive are the calls of the source. Rule as the data show it: active = GI50 up to about 1.1 µM and inactive = higher.

What was measured:
Experiment in all cases: NCI tumour cell line growth inhibition, 48 h
SK-MEL-5 = tested on: SK-MEL-5
MDA-N = tested on: MDA-N
LOX IMVI = tested on: LOX IMVI
Malme-3M = tested on: Malme-3M
HOP-92 = tested on: HOP-92
MCF7 = tested on: MCF7
K562 = tested on: K562
PC-3 = tested on: PC-3
SNB-75 = tested on: SNB-75
HCT-15 = tested on: HCT-15
NCI/ADR-RES = tested on: NCI/ADR-RES
HCC 2998 = tested on: HCC 2998
T47D = tested on: T47D
EKVX = tested on: EKVX
COLO 205 = tested on: COLO 205
HOP-62 = tested on: HOP-62
SNB-19 = tested on: SNB-19
OVCAR-3 = tested on: OVCAR-3
SF-295 = tested on: SF-295
A498 = tested on: A498

Structure (SMILES)	GI50 (SK-MEL-5)	GI50 (MDA-N)	GI50 (LOX IMVI)	GI50 (Malme-3M)	GI50 (HOP-92)	GI50 (MCF7)	GI50 (K562)	GI50 (PC-3)	GI50 (SNB-75)	GI50 (HCT-15) [µM]	GI50 (NCI/ADR-RES)	GI50 (HCC 2998)	GI50 (T47D)	GI50 (EKVX)	GI50 (COLO 205)	GI50 (HOP-62)	GI50 (SNB-19)	GI50 (OVCAR-3)	GI50 (SF-295)	GI50 (A498)
N#C/C(=C\c1ccc([N+](=O)[O-])o1)c1n[nH]c(Cc2ccccc2)n1	1.05 µM (active)	1 µM (active)	1.07 µM (active)	1.94 µM (inactive)	2.77 µM (inactive)	2.28 µM (inactive)	1.55 µM (inactive)	2.45 µM (inactive)	2.52 µM (inactive)	0.281	2.79 µM (inactive)	1.63 µM (inactive)	2 µM (inactive)	2.72 µM (inactive)	1.23 µM (inactive)	2.62 µM (inactive)	4.93 µM (inactive)	1.64 µM (inactive)	7.26 µM (inactive)	6.32 µM (inactive)
O=C(Nc1ccc(Cl)cc1)c1cc(S(=O)(=O)Nc2nc3cccnc3[nH]2)c(SSc2cc(Cl)c(C(=O)Nc3ccc(Cl)cc3)cc2S(=O)(=O)Nc2nc3cccnc3[nH]2)cc1Cl	> 100 µM (inactive)	> 100 µM (inactive)	> 100 µM (inactive)	> 100 µM (inactive)	> 100 µM (inactive)	> 100 µM (inactive)	3.86 µM (inactive)	> 100 µM (inactive)	> 100 µM (inactive)	> 100	> 100 µM (inactive)	> 100 µM (inactive)	> 100 µM (inactive)	> 100 µM (inactive)	> 100 µM (inactive)	> 100 µM (inactive)	> 100 µM (inactive)	> 100 µM (inactive)	> 100 µM (inactive)	> 100 µM (inactive)
COC(=O)C1C(=O)N(C)C(=O)N2CCCC12 (stereo not given)	> 100 µM (inactive)	> 100 µM (inactive)	> 100 µM (inactive)	> 100 µM (inactive)	> 100 µM (inactive)	> 100 µM (inactive)	> 100 µM (inactive)	> 100 µM (inactive)	> 100 µM (inactive)	> 100	> 100 µM (inactive)	> 100 µM (inactive)	> 100 µM (inactive)	> 100 µM (inactive)	> 100 µM (inactive)	> 100 µM (inactive)	> 100 µM (inactive)	> 100 µM (inactive)	> 100 µM (inactive)	> 100 µM (inactive)
CCOC(=O)/C=C(/C(=O)OCC)n1cc(C)c(=O)n(Cc2cn(COCCOC(C)=O)nn2)c1=O	24.9 µM (inactive)	38.3 µM (inactive)	22.2 µM (inactive)	11 µM (inactive)	13.2 µM (inactive)	16.5 µM (inactive)	7.18 µM (inactive)	37.3 µM (inactive)	33.2 µM (inactive)	20.7	21 µM (inactive)	17.3 µM (inactive)	25.8 µM (inactive)	16.7 µM (inactive)	7.82 µM (inactive)	> 100 µM (inactive)	> 52.6 µM (inactive)	24.7 µM (inactive)	> 100 µM (inactive)	50.5 µM (inactive)
CC(=O)O[C@H]1CC[C@@]2(C)C(=CC[C@H]3[C@@H]4C/C(=C\c5ccncc5)[C@H](OC(C)=O)[C@@]4(C)CC[C@@H]32)C1	5.47 µM (inactive)	18.3 µM (inactive)	3.48 µM (inactive)	7.67 µM (inactive)	3.48 µM (inactive)	14.7 µM (inactive)	3.15 µM (inactive)	18.2 µM (inactive)	7.62 µM (inactive)	3.45	4.34 µM (inactive)	13.1 µM (inactive)	14.2 µM (inactive)	9.55 µM (inactive)	4.08 µM (inactive)	4.54 µM (inactive)	8.61 µM (inactive)	11.3 µM (inactive)	5.02 µM (inactive)	12.9 µM (inactive)
CC1(C)CCC2(C(=O)OC3OC(CO)C(O)C(O)C3O)CCC3(CO)C(=CCC4C5(C)CC(O)C(O)C(C)(C(=O)OC6OC(CO)C(O)C(O)C6O)C5CCC43C)C2C1 (stereo not given)	> 100 µM (inactive)	> 100 µM (inactive)	> 100 µM (inactive)	> 100 µM (inactive)	> 100 µM (inactive)	> 100 µM (inactive)	> 100 µM (inactive)	> 100 µM (inactive)	> 100 µM (inactive)	> 100	> 100 µM (inactive)	> 100 µM (inactive)	> 100 µM (inactive)	> 100 µM (inactive)	> 100 µM (inactive)	> 100 µM (inactive)	> 100 µM (inactive)	> 100 µM (inactive)	> 100 µM (inactive)	> 100 µM (inactive)
Clc1ccc2c(NCCCCN3OC3c3ccccc3)ccnc2c1 (stereo not given)	4.79 µM (inactive)	5.42 µM (inactive)	2.13 µM (inactive)	8.41 µM (inactive)	10.5 µM (inactive)	4.29 µM (inactive)	2.44 µM (inactive)	13.3 µM (inactive)	5.82 µM (inactive)	10.4	18.5 µM (inactive)	2.89 µM (inactive)	5.53 µM (inactive)	21.8 µM (inactive)	2.86 µM (inactive)	4.75 µM (inactive)	6.89 µM (inactive)	4.45 µM (inactive)	12.2 µM (inactive)	8.36 µM (inactive)
CC1(C)N=C(N)N=C(N)N1c1cccc(CSc2ccccc2)c1	0.212 µM (active)	0.037 µM (active)	0.103 µM (active)	8.89 µM (inactive)	32 µM (inactive)	0.597 µM (active)	0.774 µM (active)	3.73 µM (inactive)	4.42 µM (inactive)	50.4	> 100 µM (inactive)	73.1 µM (inactive)	12.9 µM (inactive)	23 µM (inactive)	0.794 µM (active)	6.4 µM (inactive)	0.218 µM (active)	0.991 µM (active)	1.1 µM (active)	> 100 µM (inactive)
OC1(c2ccccc2)CSC2=Nc3ccccc3C3CCN1N23 (stereo not given)	17.7 µM (inactive)	14.1 µM (inactive)	19 µM (inactive)	22.4 µM (inactive)	18.9 µM (inactive)	15.6 µM (inactive)	38.6 µM (inactive)	15.3 µM (inactive)	3.75 µM (inactive)	17.6	18.5 µM (inactive)	26.9 µM (inactive)	16.6 µM (inactive)	3.89 µM (inactive)	17.7 µM (inactive)	14.5 µM (inactive)	15.5 µM (inactive)	26.7 µM (inactive)	6.47 µM (inactive)	14.6 µM (inactive)
C[C@H]1[C@H](C)CC[C@]2(C(=O)OC3OC(CO)C(O)C(O)C3O)CC[C@]3(C)C(=CC[C@@H]4[C@@]5(C)C[C@@H](O)[C@@H]6OC(=O)c7cc(O)c(O)c(O)c7-c7c(cc(O)c(O)c7O)C(=O)OC[C@]6(CO)[C@@H]5CC[C@]43C)[C@H]12 (stereo not given in full)	39.8 µM (inactive)	21.5 µM (inactive)	12.6 µM (inactive)	> 100 µM (inactive)	63.1 µM (inactive)	7.1 µM (inactive)	45.7 µM (inactive)	> 62.4 µM (inactive)	> 88.5 µM (inactive)	28.1	> 62.4 µM (inactive)	17.3 µM (inactive)	42.7 µM (inactive)	36.7 µM (inactive)	41.7 µM (inactive)	30.9 µM (inactive)	26.5 µM (inactive)	35.2 µM (inactive)	29.2 µM (inactive)	> 100 µM (inactive)
CCn1cc(C(=O)O)c(=O)c2cc(F)c(N3CCN(CN4C(=O)/C(=N\NC(=O)c5ccncc5)c5cc(Cl)ccc54)CC3)cc21	42.2 µM (inactive)	50.6 µM (inactive)	34.3 µM (inactive)	86.1 µM (inactive)	45.5 µM (inactive)	28.2 µM (inactive)	18.7 µM (inactive)	38.5 µM (inactive)	25.5 µM (inactive)	31.1	79.6 µM (inactive)	36 µM (inactive)	29.4 µM (inactive)	32.6 µM (inactive)	52.7 µM (inactive)	22.9 µM (inactive)	44.3 µM (inactive)	39.1 µM (inactive)	> 100 µM (inactive)	> 100 µM (inactive)
CCN(CC)CCC(=O)c1ccc(Oc2ccc(Cl)cc2)cc1	17.5 µM (inactive)	16.1 µM (inactive)	14.6 µM (inactive)	18 µM (inactive)	16.2 µM (inactive)	17.7 µM (inactive)	31.8 µM (inactive)	15.1 µM (inactive)	12 µM (inactive)	18.4	22.3 µM (inactive)	18.8 µM (inactive)	20.7 µM (inactive)	19.5 µM (inactive)	24.3 µM (inactive)	11.8 µM (inactive)	30 µM (inactive)	15.3 µM (inactive)	18.4 µM (inactive)	16.1 µM (inactive)
CCCCCCCCCCCC[C@@H](O)[C@H]1CC[C@H]([C@H](O)CCCC[C@H](O)CCCCC[C@@H](O)CC2=C[C@H](C)OC2=O)O1	0.0143 µM (active)	2.08 µM (inactive)	1.19 µM (inactive)	2.09 µM (inactive)	2.34 µM (inactive)	1.64 µM (inactive)	0.213 µM (active)	1.53 µM (inactive)	2.92 µM (inactive)	2.39	1.25 µM (inactive)	3.43 µM (inactive)	2.39 µM (inactive)	0.562 µM (active)	1.75 µM (inactive)	2.59 µM (inactive)	2.83 µM (inactive)	0.569 µM (active)	< 0.0486 µM (active)	3.55 µM (inactive)
